This passage reports GI50 and TGI results from PubChem BioAssay (NCI).

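Interpolation was linear, between the two tested concentrations surrounding the appropriate level; five concentrations were tested over 48 hours in 96-well plates. Abbreviation: GI50, concentration required for 50% inhibition of growth. TGI: concentration producing complete growth inhibition.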

This experiment relates to MDA-MB-468 breast. Briefly: NCI tumour cell line growth inhibition, 48 h.

For `C#Cc1cccc(NC(=O)c2ccc(NC(=O)CCl)cc2)c1`, the GI50 is 18.8 µM and the TGI came out at 76.9 µM.

In the case of `CN(C)c1ccc(N=C2C=CC(=O)c3ccccc32)cc1`, the GI50 is 2.15 µM and the TGI amounted to 6.05 µM.

As to `COCc1c(-c2ccc(NC(=O)Nc3cc(C(F)(F)F)ccc3F)c(F)c2)c2c(N)ncnn2c1CN1CCOCC1`, the GI50 was 1.62 µM and the TGI came to 5.68 µM.

`COc1ccc(OC)c(/C=C/c2nc(SCc3ccccc3)n(-c3ccc(Cl)cc3)n2)c1`: the GI50 was 5.12 µM and the TGI amounted to 84.5 µM.

Consider `Cc1cc(Cl)cc(Cc2cc(Cl)cc(C)c2O)c1O`, for which the GI50 is 2.22 µM and the TGI turned out to be 6.92 µM.

For `CN(C)CCNC(=O)NC[C@H]1CC[C@@H]2[C@H](O1)c1cc(C(F)(F)F)ccc1N[C@H]2c1ccccc1`, the GI50 is 0.0349 µM and the TGI worked out at 0.312 µM.

Regarding `C=C1C(=O)O[C@H]2[C@H]1CC/C(COC(=O)NCCCCCCCCNC(=O)OC/C1=C/CC[C@@]3(C)O[C@H]3[C@H]3OC(=O)C(=C)[C@@H]3CC1)=C\CC[C@@]1(C)O[C@@H]21`, the GI50 is 0.191 µM and the TGI came to 0.462 µM.

As for `CNC(=O)c1cc(Oc2ccc3c(c2)sc2nc(-c4ccc(N(C)C)cc4)cn23)ccn1`, the GI50 was 0.3 µM and the TGI is more than 50 µM.

Consider `C[C@@H](Oc1cc(-n2cnc3ccc(OC[C@@H](O)CO)cc32)sc1C(N)=O)c1ccccc1Cl`, for which the GI50 was 0.0159 µM and the TGI is 6.07 µM.

For the compound `CCN(Cc1ccc(F)cc1)c1ccc(CO)c(OC)c1`, the GI50 was 0.435 µM and the TGI stood at 2.11 µM.

Turning to `COC(=O)[C@]12CC[C@@H](C)[C@H](C)[C@@H]1C1=CC[C@@H]3[C@@]4(C)C(C=O)=C[C@@](C)(COC(=O)/C=C/c5ccccc5)[C@@H]4[C@H](O)C[C@@]3(C)[C@]1(C)CC2`, the GI50 is 2.59 µM and the TGI worked out at 7.49 µM.

With `Cc1ccc(S(=O)(=O)N2CCc3ccc(O)c4c3C2Cc2ccc3c(c2-4)OCO3)cc1` (stereo not drawn), the GI50 was 0.743 µM and the TGI came out at 7.49 µM.

For the compound `CCCN1CCC(c2ccc(Nc3nc(Nc4cc(F)ccc4C(N)=O)c4cc[nH]c4n3)c(OC)c2)CC1`, the GI50 is 3.47 µM and the TGI is 7.39 µM.

Take `CCn1ccc(NS(=O)(=O)c2ccc(N)cc2)nc1=O`: the GI50 was more than 100 µM and the TGI is more than 100 µM.

As to `FC(F)(F)c1cc(Nc2ccc3cc(OCCCN4CCOCC4)ccc3n2)ccc1Cl`, the GI50 is 1.91 µM and the TGI was 6.75 µM.

As for `Nc1c(F)cc(-c2nc3cc(F)ccc3[se]2)cc1Br`, the GI50 was 0.026 µM and the TGI was 0.0933 µM.

`Cc1ccc(S(=O)(=O)Nc2ccc(-c3cc(-c4cccc(F)c4)c(C#N)c(N)n3)cc2)cc1`: the GI50 was 1.72 µM and the TGI amounted to 3.76 µM.

On to `CC1=C([Se]CC(OC(=O)[C@@H](CO)NC(=O)OC(C)(C)C)C(=O)NCCCCCC(=O)OCc2ccccc2)C(=O)c2ccccc2C1=O` (stereo partly drawn), for which the GI50 is 1.49 µM and the TGI is 3.16 µM.

As for `O=[N+]([O-])c1ccc(Sc2ccncn2)c([N+](=O)[O-])c1`, the GI50 was 0.982 µM and the TGI worked out at 3.78 µM.

Turning to `CCC(=O)Nc1cc(Nc2cc(NC3CC3)n3ncc(C#N)c3n2)ccc1C`, the GI50 was 1.16 µM and the TGI turned out to be 4.06 µM.

For the compound `COc1cnc2c(c1)C(=O)c1c-2n(CCCN2CCNCC2)c(=O)c2cc([N+](=O)[O-])ccc12`, the GI50 is 0.257 µM and the TGI came to 1.35 µM.

Take `CN(C)CCOC(=O)Nc1nc2ccc(Sc3ccccc3)cc2[nH]1`: the GI50 was 2.02 µM and the TGI was 7.73 µM.

For `Nc1ncnc2c1ccn2[C@@H]1O[C@H]([C@H](O)c2ccc(Cl)c(F)c2)[C@@H](O)[C@H]1O`, the GI50 was 40.7 µM and the TGI is more than 100 µM.

Take `COC1=CC(=O)c2nc(Cl)ccc2C1=O`: the GI50 was 1.36 µM and the TGI is 2.67 µM.

`COc1ccc(/C=C2\c3cc(OC)c(OC)c(OC)c3CC[C@@H]2O)cc1F`: the GI50 is 1.16 µM and the TGI is more than 100 µM.

As for `CC1(C)N=C(N)N=C(N)N1c1cccc(Br)c1`, the GI50 is 0.4 µM and the TGI is more than 85.1 µM.

Regarding `COCCn1cc(-c2csc(-c3c[nH]c4ccc(Br)cc34)n2)c2cccnc21`, the GI50 is 2.34 µM and the TGI came to 7.63 µM.

Consider `C=CCc1c(O)c(C(=O)/C=C/c2ccccc2)c(OC)c2ccoc12`, for which the GI50 was 3.07 µM and the TGI amounted to 11.4 µM.

Take `N#CC1C(=O)NC(c2ccccc2[N+](=O)[O-])c2sc3c(F)cccc3c21` (stereo not drawn): the GI50 was 0.108 µM and the TGI worked out at 0.283 µM.

`Cc1nccc2c3ccc(OCc4cn(-c5ccc(Cl)cc5)nn4)cc3n(CC(C)C)c12`: the GI50 was 0.968 µM and the TGI was found to be 12 µM.

For `COc1cccc(Nc2nccc(-c3cnn4ncccc34)n2)c1`, the GI50 is 0.0484 µM and the TGI was 0.106 µM.

For `CN1CCN(Cc2ccc(NC(=O)c3cncc(C#Cc4cnc(N)c5cnccc45)c3)cc2C(F)(F)F)CC1`, the GI50 was 0.285 µM and the TGI is 4.52 µM.

As to `CN1CCN(Cc2cc(NC(=O)c3cccc(C#Cc4cccc5[nH]nc(N)c45)c3)cc(C(F)(F)F)c2)CC1`, the GI50 is 1.75 µM and the TGI turned out to be 3.35 µM.

Take `COc1ccc(N(C)c2nc(Cl)nc3cnn(C)c23)cc1`: the GI50 is less than 0.01 µM and the TGI is more than 100 µM.
